In brackets after ≈: the same amount, converted by molar mass.
Legend:
[1] = D9 solubility in the liquors at isolation temperature; type: physicochemical; details: organic solvent or mixture, thermodynamic from solid
Procedure: At the end of each experiment, suspensions were equilibrated at the isolation temperature (25 or 5° C.) for at least 18 hours and the solids and liquors separated by centrifugation at the isolation temperature. The Exo/D9/D8 ratio (Exo-D9-THC-naphthoylester impurity/D9-THC-naphthoylester/D8-THC-naphthoylester) was determined in both the isolated solids and the liquors, from which the % Exo-depletion in the isolated solids was calculated. Several solids were also isolated at elevated temperatures to assess the impact of the isolation temperature on Exo-impurity depletion.
In addition, the solubility of D9 in the liquors was determined in most of the explored solvents and used to estimate the yield.

[2] = Competitive ripening (relative thermodynamic stability of non-solvated forms)

Work on `CCCCCc1cc(OC(=O)c2ccc3ccccc3c2)c2c(c1)OC(C)(C)[C@@H]1CCC(C)=C[C@@H]21` [Form B, (6aR,10aR)-6a,7,8,10a-tetrahydro-6,6,9-trimethyl-3-pentyl-6H-dibenzo[b,d]pyran-1-yl ester] yielded a solubility ([1]; Cyclohexanone/MeOH (1:9), 25 °C, batch 5, Cyclohexanone/MeOH (1:9), seed G/H, heat T 60, isolation T 25, SP 12, 10.0 mL/g) of 7600 µg/mL (≈ 16.2 mM), a solubility ([1]; DMF/MeOH (1:9), 25 °C, batch 5, DMF/MeOH (1:9), seed D, heat T 50, isolation T 25, SP 2, 8.9 mL/g) of 5200 µg/mL (≈ 11.1 mM) and a solubility ([1]; DMF/MeOH (1:9), 25 °C, batch 5, DMF/MeOH (1:9), seed G, heat T 50, isolation T 25, SP 3, 9.4 mL/g) of 4700 µg/mL (≈ 10 mM). The solubility ([1]; DMF/MeOH (1:9), 25 °C, batch 5, DMF/MeOH (1:9), seed G, heat T 60, isolation T 25, SP 9, 10.0 mL/g) was 5100 µg/mL (≈ 10.9 mM), the solubility ([1]; DMSO/MeOH (1:9), 25 °C, batch 5, DMSO/MeOH (1:9), seed D, heat T 50, isolation T 25, SP 2, 8.2 mL/g) was 4100 µg/mL (≈ 8.75 mM) and the solubility ([1]; DMSO/MeOH (1:9), 25 °C, batch 5, DMSO/MeOH (1:9), seed D/G, heat T 60, isolation T 25, SP 9, 10.0 mL/g) was 4200 µg/mL (≈ 8.96 mM). The solubility ([1]; DMSO/MeOH (1:9), 25 °C, batch 5, DMSO/MeOH (1:9), seed G, heat T 50, isolation T 25, SP 4, 9.4 mL/g) was 3700 µg/mL (≈ 7.9 mM), the solubility ([1]; DMSO/MeOH (3:7), 25 °C, batch 5, DMSO/MeOH (3:7), seed D, heat T 50, isolation T 25, SP 2, 7.1 mL/g) was 7500 µg/mL (≈ 16 mM) and the solubility ([1]; DMSO/MeOH (3:7), 25 °C, batch 5, DMSO/MeOH (3:7), seed G, heat T 50, isolation T 25, SP 4, 5.2 mL/g) was 7000 µg/mL (≈ 14.9 mM). It also gave a solubility ([1]; DMSO/acetone/MeOH (1.5:1.5:7), 25 °C, batch 5, DMSO/acetone/MeOH (1.5:1.5:7), seed D, heat T 50, isolation T 25, SP 2, 5.0 mL/g) of 9100 µg/mL (≈ 19.4 mM), a solubility ([1]; DMSO/acetone/MeOH (1.5:1.5:7), 25 °C, batch 5, DMSO/acetone/MeOH (1.5:1.5:7), seed G, heat T 50, isolation T 25, SP 4, 5.1 mL/g) of 7200 µg/mL (≈ 15.4 mM) and a solubility ([1]; EtOAc/EtOH (1:9), 25 °C, batch 5, EtOAc/EtOH (1:9), seed H, heat T 55, isolation T 25, SP 21, 10.0 mL/g) of 12000 µg/mL (≈ 25.6 mM). For the same compound, the solubility ([1]; EtOAc/MeOH (1:3), 5 °C, batch 5, EtOAc/MeOH (1:3), seed G, heat T 25, isolation T 5, SP 11, 30.0 mL/g) was 11200 µg/mL (≈ 23.9 mM), the solubility ([1]; IPA, 25 °C, batch 5, IPA, seed G/H, heat T 50, isolation T 25, SP 14, 10.0 mL/g) was 7300 µg/mL (≈ 15.6 mM) and the solubility ([1]; IPA/water (95:5), 25 °C, batch 5, IPA/water (95:5), seed G/H, heat T 60, isolation T 25, SP 12, 10.0 mL/g) was 4500 µg/mL (≈ 9.6 mM). It also gave a solubility ([1]; MEK/IPA (1:9), 25 °C, batch 5, MEK/IPA (1:9), seed G/H, heat T 55, isolation T 25, SP 15, 5.0 mL/g) of 17200 µg/mL (≈ 36.7 mM), a solubility ([1]; MEK/MeOH (1:9), 25 °C, batch 5, MEK/MeOH (1:9), seed G/H, heat T 60, isolation T 25, SP 12, 10.0 mL/g) of 4500 µg/mL (≈ 9.6 mM) and a solubility ([1]; MEK/MeOH (3:7), 5 °C, batch 5, MEK/MeOH (3:7), seed G, heat T 25, isolation T 5, SP 11, 30.0 mL/g) of 15800 µg/mL (≈ 33.7 mM). For the same compound, the solubility ([1]; MEK/MeOH (3:7), 25 °C, batch 5, MEK/MeOH (3:7), seed G, heat T 25, isolation T 25, SP 7, 30.0 mL/g) was 16800 µg/mL (≈ 35.8 mM), the solubility ([1]; MeOH, 25 °C, batch 5, MeOH, seed E/G, heat T 50, isolation T 25, SP 3, 9.8 mL/g) was 5000 µg/mL (≈ 10.7 mM) and the solubility ([1]; Toluene/EtOH (5:95), 25 °C, batch 5, Toluene/EtOH (5:95), seed H, heat T 55, isolation T 25, SP 21, 12.0 mL/g) was 10300 µg/mL (≈ 22 mM). The solubility ([1]; Toluene/MeOH (1:9), 5 °C, batch 5, Toluene/MeOH (1:9), seed G, heat T 40, isolation T 5, SP 10, 30.0 mL/g) was 8700 µg/mL (≈ 18.6 mM), the solubility ([1]; crystallisation liquors over suspended solid, 5 °C, batch 5, p-Xylene/MeOH (1:9), seed G, heat T 25, isolation T 5, SP 11, 40.0 mL/g) was 9200 µg/mL (≈ 19.6 mM) and the solubility ([1]; crystallisation liquors over suspended solid, 25 °C, batch 2, IPA/water (95:5), seed G/H, heat T 55, isolation T 25, SP 13, 10.0 mL/g) was 5600 µg/mL (≈ 11.9 mM). For the same compound, the solubility ([1]; crystallisation liquors over suspended solid, 25 °C, batch 2, IPA/water (99:1), seed G/H, heat T 55, isolation T 25, SP 13, 10.0 mL/g) was 7300 µg/mL (≈ 15.6 mM), the solubility ([1]; crystallisation liquors over suspended solid, 25 °C, batch 5, Anisole/MeOH (1:9), seed G, heat T 40, isolation T 25, SP 8, 30.0 mL/g) was 9600 µg/mL (≈ 20.5 mM) and the solubility ([1]; crystallisation liquors over suspended solid, 25 °C, batch 5, Cyclohexanone/IPA (1:9), seed G/H, heat T 45, isolation T 25, SP 15, 2.5 mL/g) was 59200 µg/mL (≈ 126 mM). It also gave a solubility ([1]; crystallisation liquors over suspended solid, 25 °C, batch 5, EtOAc/IPA (1:9), seed G/H, heat T 55, isolation T 25, SP 15, 7.4 mL/g) of 15100 µg/mL (≈ 32.2 mM), a solubility ([1]; crystallisation liquors over suspended solid, 25 °C, batch 5, EtOAc/MeOH (1:3), seed G, heat T 40, isolation T 25, SP 8, 30.0 mL/g) of 11300 µg/mL (≈ 24.1 mM) and a solubility ([1]; crystallisation liquors over suspended solid, 25 °C, batch 5, EtOH, seed E/G, heat T 50, isolation T 25, SP 3, 9.6 mL/g) of 6900 µg/mL (≈ 14.7 mM). For the same compound, the solubility ([1]; crystallisation liquors over suspended solid, 25 °C, batch 5, MEK/EtOH (1:9), seed G/H, heat T 55, isolation T 25, SP 15, 10.0 mL/g) was 11200 µg/mL (≈ 23.9 mM), the solubility ([1]; crystallisation liquors over suspended solid, 25 °C, batch 5, Toluene/MeOH (1:9), seed G, heat T 40, isolation T 25, SP 8, 30.0 mL/g) was 8400 µg/mL (≈ 17.9 mM) and the solubility ([1]; crystallisation liquors over suspended solid, 25 °C, batch 5, Toluene/MeOH (3:7), seed G, heat T 40, isolation T 25, SP 3, 5.5 mL/g) was 53500 µg/mL (≈ 114 mM). It also gave a solubility ([1]; crystallisation liquors over suspended solid, 25 °C, batch 5, n-BuOH, seed E/G, heat T 50, isolation T 25, SP 3, 9.8 mL/g) of 14800 µg/mL (≈ 31.6 mM), a solubility ([1]; crystallisation liquors over suspended solid, 25 °C, batch 5, n-BuOH, seed G, heat T 40, isolation T 25, SP 8, 10.0 mL/g) of 16700 µg/mL (≈ 35.6 mM) and a solubility ([1]; liquors of the equilibrated crystallisation suspension, 25 °C, batch 2, IPA/water (95:5), seed G/H, heat T 55, isolation T 25, 10.0 mL/g, SP 13, Exp 43) of 5600 µg/mL (≈ 11.9 mM). For the same compound, the solubility ([1]; liquors of the equilibrated crystallisation suspension, 25 °C, batch 2, IPA/water (99:1), seed G/H, heat T 55, isolation T 25, 10.0 mL/g, SP 13, Exp 45) was 7300 µg/mL (≈ 15.6 mM), the solubility ([1]; liquors of the equilibrated crystallisation suspension, 25 °C, batch 5, Cyclohexanone/EtOH (1:9), seed G/H, heat T 55, isolation T 25, 5.0 mL/g, SP 16, Exp 32) was 21100 µg/mL (≈ 45 mM) and the solubility ([1]; liquors of the equilibrated crystallisation suspension, 25 °C, batch 5, Cyclohexanone/IPA (1:9), seed G/H, heat T 45, isolation T 25, 2.5 mL/g, SP 15, Exp 39) was 59200 µg/mL (≈ 126 mM). For the same compound, the solubility ([1]; liquors of the equilibrated crystallisation suspension, 25 °C, batch 5, Cyclohexanone/MeOH (1:9), seed G/H, heat T 60, isolation T 25, 10.0 mL/g, SP 12, Exp 30) was 7600 µg/mL (≈ 16.2 mM), the solubility ([1]; liquors of the equilibrated crystallisation suspension, 25 °C, batch 5, EtOAc/EtOH (1:9), seed H, heat T 55, isolation T 25, 10.0 mL/g, SP 21, Exp 28) was 12000 µg/mL (≈ 25.6 mM) and the solubility ([1]; liquors of the equilibrated crystallisation suspension, 25 °C, batch 5, EtOAc/IPA (1:9), seed G/H, heat T 55, isolation T 25, 7.4 mL/g, SP 15, Exp 35) was 15100 µg/mL (≈ 32.2 mM). It also gave a solubility ([1]; liquors of the equilibrated crystallisation suspension, 25 °C, batch 5, IPA/water (95:5), seed G/H, heat T 60, isolation T 25, 10.0 mL/g, SP 12, Exp 29) of 4500 µg/mL (≈ 9.6 mM), a solubility ([1]; liquors of the equilibrated crystallisation suspension, 25 °C, batch 5, IPA, seed G/H, heat T 50, isolation T 25, 10.0 mL/g, SP 14, Exp 31) of 7300 µg/mL (≈ 15.6 mM) and a solubility ([1]; liquors of the equilibrated crystallisation suspension, 25 °C, batch 5, MEK/EtOH (1:9), seed G/H, heat T 55, isolation T 25, 10.0 mL/g, SP 15, Exp 40) of 11200 µg/mL (≈ 23.9 mM). It also gave a solubility ([1]; liquors of the equilibrated crystallisation suspension, 25 °C, batch 5, MEK/IPA (1:9), seed G/H, heat T 55, isolation T 25, 5.0 mL/g, SP 15, Exp 25) of 17200 µg/mL (≈ 36.7 mM), a solubility ([1]; liquors of the equilibrated crystallisation suspension, 25 °C, batch 5, MEK/MeOH (1:9), seed G/H, heat T 60, isolation T 25, 10.0 mL/g, SP 12, Exp 27) of 4500 µg/mL (≈ 9.6 mM) and a solubility ([1]; liquors of the equilibrated crystallisation suspension, 25 °C, batch 5, Toluene/EtOH (5:95), seed H, heat T 55, isolation T 25, 12.0 mL/g, SP 21, Exp 33) of 10300 µg/mL (≈ 22 mM). The solubility ([1]; n-BuOH/MeOH (1:3), 25 °C, batch 5, n-BuOH/MeOH (1:3), seed E/G, heat T 50, isolation T 25, SP 3, 9.4 mL/g) was 5600 µg/mL (≈ 11.9 mM), the solubility ([1]; n-BuOH/MeOH (1:3), 25 °C, batch 5, n-BuOH/MeOH (1:3), seed G, heat T 60, isolation T 25, SP 9, 10.0 mL/g) was 6000 µg/mL (≈ 12.8 mM) and the solubility ([1]; p-Xylene/MeOH (1:9), 25 °C, batch 5, p-Xylene/MeOH (1:9), seed G, heat T 25, isolation T 25, SP 7, 40.0 mL/g) was 9800 µg/mL (≈ 20.9 mM). For the same compound, the Relative thermodynamic stability [2] was “metastable form” and the “Nature (thermodynamic stability of crystal form)” value ([2]; Table 6 summary) was “Metastable”.
